Source: paper PMC2267855, “Site-directed mutagenesis of Arginine282 suggests how protons and peptides are co-transported by rabbit PepT1” (The International Journal of Biochemistry & Cell Biology, 2008)
Where a chain is given by its changes, count along the chain named. Where a SMILES comes first, the peptide text is derived from it.

Assays:
Type in all cases: cell-based, rabbit
[1] = target: T1, R282D-PepT1 (Oryctolagus cuniculus, UniProt P36836, R282D); experiment: Apparent charge:peptide stoichiometry (two-electrode voltage clamp current / radiolabelled uptake), R282D-PepT1; settings: R282D-PepT1, pHout 5.5, resting membrane potential
T1 construct: expressed in transfected cells; host or cells: Xenopus laevis oocytes injected with cRNA
T1 sequence (P36836 1-707 R282D): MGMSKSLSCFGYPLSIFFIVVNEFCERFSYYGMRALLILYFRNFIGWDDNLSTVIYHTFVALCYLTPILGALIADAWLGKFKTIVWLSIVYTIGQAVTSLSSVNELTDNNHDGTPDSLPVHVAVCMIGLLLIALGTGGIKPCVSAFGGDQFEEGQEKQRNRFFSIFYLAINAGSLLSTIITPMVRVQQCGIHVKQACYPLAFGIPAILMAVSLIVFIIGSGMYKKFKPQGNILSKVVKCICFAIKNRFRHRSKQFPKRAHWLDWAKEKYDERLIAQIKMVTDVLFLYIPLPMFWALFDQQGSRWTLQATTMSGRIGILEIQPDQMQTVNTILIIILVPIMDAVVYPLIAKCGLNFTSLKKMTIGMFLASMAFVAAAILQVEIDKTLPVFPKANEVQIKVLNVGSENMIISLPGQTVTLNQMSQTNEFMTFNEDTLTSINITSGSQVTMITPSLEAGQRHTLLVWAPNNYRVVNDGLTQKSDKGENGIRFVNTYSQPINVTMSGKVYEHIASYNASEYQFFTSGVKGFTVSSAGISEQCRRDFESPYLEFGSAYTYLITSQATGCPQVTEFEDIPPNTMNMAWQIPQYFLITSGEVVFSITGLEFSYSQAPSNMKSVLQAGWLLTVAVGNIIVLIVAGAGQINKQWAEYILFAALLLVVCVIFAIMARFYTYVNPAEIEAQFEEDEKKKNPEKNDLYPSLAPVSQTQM
Procedure: Measurements of membrane potential were made by impaling oocytes with a single glass microelectrode (Intra 767 amplifier, WPI, Stevenage, Hertfordshire, UK) perfused in uptake medium (as above) with or without 0.4 μM D-Phe-L-Gln (synthesised in house), 0.6 mM Gly-L-Gln (Sigma, Poole, UK) or 10 mM 4-aminobenzoic acid (4-AMBA, Sigma). Two-electrode voltage clamp (TEVC) was performed by placing oocytes in a 0.1 ml recording chamber and perfusing with uptake solution (pH 5.5 or 7.4) at a rate of 15 ml/min. Oocytes were impaled by two agarose-cushioned microelectrodes filled with 3 M KCl (0.5–2.0 MΩ) and voltage-clamped at −60 mV using a Geneclamp 500B amplifier and PCLAMP 8.1 software (Axon Instruments, CA, USA). The holding potential was stepped from −60 mV over the range of −150 to +50 mV in 10 mV steps, each pulse lasting 100 ms, and returning to −60 mV in between test voltage pulses. Typically traces were filtered at 1 kHz during recording and digitized at 0.5–5 kHz using the DigiData 1200 interface (Axon Instruments, CA, USA). All experiments were carried out at room temperature.
In order to calculate the apparent charge:substrate stoichiometry, the peptide induced current that was measured by two-electrode voltage clamp at the oocyte resting membrane potential was divided by the radiolabelled dipeptide uptake in oocytes from the same preparation. […]

[2] = target: T2, R282H-PepT1 (Oryctolagus cuniculus, UniProt P36836, R282H); experiment: Inhibition of [3H]-D-Phe-L-Gln uptake into Xenopus oocytes expressing R282H-PepT1 (competition, Ki); settings: pHout 5.5, 0.4 μM [3H]-D-Phe-L-Gln
T2 construct: expressed in transfected cells; host or cells: Xenopus laevis oocytes injected with cRNA
T2 sequence (P36836 1-707 R282H): T1 sequence (P36836 1-707 R282D) with D282H
Procedure: (§1) Zero-trans uptake of [^3H]-D-Phe-L-Gln (17.4 Ci/mmole, custom synthesised, Cambridge Research Biochemicals, Stockton-on-Tees, UK) was performed as previously described ([Meredith, 2004]). Briefly, 5 oocytes were incubated in 100 μl of uptake medium (95 mM NaCl, 2 mM KCl, 1 mM CaCl2, 0.42 mM MgCl2, 10 mM Tris/Hepes pH 7.4 or Tris/Mes pH 5.5) with tracer (0.4 μM) [^3H]-D-Phe-L-Gln. After incubation, the oocytes were washed sequentially five times in 1 ml of ice-cold 120 mM NaCl solution, lysed individually with 100 μl 2% (w/v) SDS and liquid scintillation counted. As a control non-injected oocytes were also incubated in uptake medium with [^3H]-D-Phe-L-Gln as above.
(§2) The affinity of wild-type and mutant PepT1 were assessed by competition studies with 0.4 μM [^3H]-D-Phe-L-Gln and Gly-L-Gln present in the uptake medium in concentrations from 0 to 2 mM using the protocol above, and the Ki calculated using the method of [Deves and Boyd (1989)].

[3] = target: T1, R282D-PepT1; experiment: Inhibition of [3H]-D-Phe-L-Gln uptake into Xenopus oocytes expressing R282D-PepT1 (competition, Ki); settings: pHout 5.5, 0.4 μM [3H]-D-Phe-L-Gln
Procedure: as §1, §2

NC(=O)CC[C@H](NC(=O)[C@H](N)Cc1ccccc1)C(=O)O [D-Phe-L-Gln]
apparent stoichiometry (charge:peptide), normalised to wild-type 1:1 [1]: 5

NCC(=O)N[C@@H](CCC(N)=O)C(=O)O [Gly-L-Gln] (H-Gly-Gln-OH)
Ki [2]: 300 ± 150 µM | Ki [3]: 340 ± 270 µM
